# Data: US4285942A, “Cyclododecanone oximes” (Egyt Gyogyszervegyeszeti Gyar, priority 1978, dated 1981)
# Tests used:
# [1] = test system: ischiadic nerve (N. ischiadieus); test: Local anaesthetizing effect on the ischiadic nerve of rats (method of Truant), Lidocaine as reference; assay type: in vivo; conditions: for Relative efficiency: local anaesthesia, relative to Lidocaine
# Experimental: The local anaesthetizing effect was investigated on the ischiadic nerve (N. ischiadieus) of rats by the method of Truant [A. P. Truant, d'Amato cited in A. P. Truant, S. Wiedling: Acta Chirurg. Scand. 116, 351 (1958)], by using Lidocaine as the reference substance. The number of animals showing the characteristic motoric paralysis and the duration of the effect were recorded. The relative efficiency with respect to Lidocaine and the duration of the effect observed on applying a 0.25% and 0.5% concentration are presented in Table 3.
# [2] = test system: nicotine-lethality; test: Nicotine-lethality inhibiting effect in mice, oral (method of Stone); assay type: in vivo; conditions: Mus musculus, nicotine-lethality inhibition, mice, groups of ten animals
# Experimental: (§1) The nicotine-lethality inhibiting effect was determined on mice by the method of Stone [C. A. Stone et al.: Arch. Intern.
# [3] = as above; assay type: in vivo; conditions: mouse, in vivo, LD50 and ED50 in mice, read-out: Therapeutic index
# Experimental: as §1
# [4] = in vivo; conditions: mouse, mice, oral
# [5] = test system: isolated rat ileum; test: Spasmolytic effect on smooth muscle, isolated rat ileum (method of Brock), papaverine as reference; conditions: relative to papaverine
# Experimental: The spasmolytic effect on smooth muscle was determined on isolated rat ileum according to the method of Brock et al. [H. Brock, J. Ceks, D. Lorenz: Arch. Exper. Path. u. Pharmacol. 215, 492/1952/] by using papaverine as the reference substance. In order to characterize the efficiency of the individual compounds their relative effect with respect to papaverine are enumerated in Table 2 below.
SMILES,Duration of effect ([1]; 0.25% concentration) [min],Duration of effect ([1]; 0.5% concentration) [min],Relative efficiency [1],ED50 [2] [mg/kg],selectivity ratio [3],LD50 [4] [mg/kg],Relative efficiency [5]
"CC(C)N(CCON=C1CCCCCCCCCCC1)C(C)C [Example 5, 1-(Diisopropylamino-ethoxyimino)cyclododecane]",31,60,0.71,10,80,800,
"COc1ccc(Cc2nccc3cc(OC)c(OC)cc23)cc1OC [Papaverine, reference compound]",,,,,,,1.0
"CCN(CC)CCCON=C1CCCCCCCCCCC1 [Example 10, 1-(Diethylamino-propoxyimino)cyclododecane]",76,104,2.00,,,,2.9
"CN(C)CCON=C1CCCCCCCCCCC1 [Example 2, 1-(Dimethylamino-ethoxyimino)cyclododecane]",23,57,0.67,28,27.9,780,
"OC(CCN1CCCCC1)(c1ccccc1)C1CCCCC1 (stereo not shown) [Artane, 1-cyclohexyl-1-phenyl-3-piperidino-propane-1-ol, reference compound]",,,,40,,,
"CC(C)N(CCCON=C1CCCCCCCCCCC1)C(C)C [Example 12, 1-(Diisopropylamino-propoxyimino)cyclododecane]",77,240,1.68,130,5,650,
"CN1CCN(CCCON=C2CCCCCCCCCCC2)CC1 [Example 7, 1-(N-methylpiperazinyl-propoxyimino)cyclododecane]",,,,68,16.2,1100,
"c1ccc(CN2CCN(CCCON=C3CCCCCCCCCCC3)CC2)cc1 [Example 6, 1-(N-Benzylpiperazinyl-propoxyimino)cyclododecane]",60,134,0.52,180,5,900,0.9
"CC(CON=C1CCCCCCCCCCC1)CN(C)C (racemic) [Example 4, D,L-1-(3'-Dimethylamino-2'-methylpropoxyimino)cyclododecane]",32,105,0.63,46,14.8,680,4.1
"CN(C)CCCON=C1CCCCCCCCCCC1 [Example 1, 1-(Dimethylamino-propoxyimino)cyclododecane]",45,95,0.77,39,14.4,560,1.4
"CCN(CC)CC(=O)Nc1c(C)cccc1C [Lidocaine, reference compound]",24,28,1.0,,,,
"CCN(CC)CC(C)CON=C1CCCCCCCCCCC1 (stereo not shown) [Example 11, 1-(3'-Diethylamino-2'-methyl-propoxyimino)cyclododecane]",151,240,1.86,80,5,400,2.6
